Data: paper PMC9147695, “Design, Synthesis, Bioactivity Evaluation, Crystal Structures, and In Silico Studies of New α-Amino Amide Derivatives as Potential Histone Deacetylase 6 Inhibitors” (Molecules, 2022)
Like-named read-outs stand apart in the source and are kept apart here.

What was measured:
RPMI 8226 = test: Anti-proliferative activity, CTG assay, RPMI 8226 cells; type: cell-based; settings: for IC50: read-out: RPMI8226 (IC50); for inhibition at 10 µM / inhibition at 50 µM: read-out: Inhibition rate RPMI 8226 (%)
Method: (§1) RPMI 8226 and HL-7702 cells were cultured in RPMI-1640 medium, Hela cells were cultured in MEM medium, and HL-60 cells were cultured in IMDM medium with 1% penicillin–streptomycin solution and 10% FBS, respectively. The above cells were cultured at 37 °C and 5% CO2. After 24 h of cell spreading, 99 μL of medium per well was prepared and 1 μL of the compound prepared solution was added to the wells. Then, the solution was incubated at 37 °C in a 5% CO2 incubator for 72 h. The cell plates to be tested were left at room temperature and 100 μL of medium per well was discarded. Then, 100 μL of CTG reagent was added, placed in a rapid shaker for 2 min, and left at room temperature away from light for 30 min. The chemiluminescence signal was read by an envision multifunctional enzyme marker. The inhibition ratios and IC50 values were calculated using Prism Graph Pad software.

[1] = Cytotoxicity toward human normal liver cells HL-7702, CTG assay; type: cell-based; settings: human, HL-7702 normal liver cells, read-out: 50% cytotoxic concentration (CC50) HL-7702
Method: as §1

HL-60 = test: Anti-proliferative activity, CTG assay, HL-60 cells; type: cell-based; settings: for inhibition at 10 µM / inhibition at 50 µM: read-out: Inhibition rate HL-60 (%)
Method: as §1

Hela = test: Anti-proliferative activity, CTG assay, Hela cells; type: cell-based; settings: 72 h; for inhibition at 10 µM / inhibition at 50 µM: read-out: Inhibition rate Hela (%)
Method: as §1

HL-7702 = test: Cytotoxicity toward human normal liver cells HL-7702, CTG assay; type: cell-based; settings: 72 h, read-out: 50% cytotoxic concentration (CC50) HL-7702
Method: as §1

[2] = Homo sapiens, RPMI-8226, 72 h, 10 μM
[3] = Homo sapiens, RPMI-8226, 72 h, 50 μM
[4] = Homo sapiens, HL-60, 72 h, 10 μM
[5] = Homo sapiens, HL-60, 72 h, 50 μM

In the case of `COC(=O)C1CCCN1S(=O)(=O)c1ccc(-c2ccc(NC(=O)CN)cc2)cc1` [7a, (2R)-Methyl 1-{4-[4-[4-(2-Aminoacetamido)phenyl]benzenesulfonyl}pyrrolidine-2-carboxylate], the “Inhibition rate RPMI 8226 (%)” value (RPMI 8226; 10 μM, 72 h) is reported as 74.54 ± 1.06%, the “Inhibition rate RPMI 8226 (%)” value (RPMI 8226; 50 μM, 72 h) is reported as 99.78 ± 0.03% and the IC50 (RPMI 8226; Homo sapiens, RPMI-8226, 72 h) is reported as 4.16 µM. The melting point was 163.4 to 165.3 °C, the CC50 at 72 h [1] was 21.1 µM and the “Inhibition rate HL-60 (%)” value (HL-60; 10 μM, 72 h) was 42.45 ± 1.11%. For the same molecule, the “Inhibition rate HL-60 (%)” value (HL-60; 50 μM, 72 h) was 97.24 ± 0.02%, the IC50 (HL-60; Homo sapiens, HL-60, 72 h) was 10.8 µM and the “Inhibition rate Hela (%)” value (Hela; 10 μM) was 98.11 ± 1.33%. The “Inhibition rate Hela (%)” value (Hela; 50 μM) was 99.84 ± 0.11% and the IC50 (Hela) was 0.31 µM.
Work on `COC(=O)[C@H]1CCCN1S(=O)(=O)c1ccc(-c2ccc(NC(=O)[C@@H](C)N)cc2)cc1` [7b, (2R)-1-(4-{4-[(2R)-2-Aminopropionamido]phenyl}benzenesulfonyl)pyrrolidine-2-carboxylate Methyl Ester] yielded an inhibition at 10 µM (RPMI 8226; [2]) of -4.81 ± 3.62%, an inhibition at 50 µM (RPMI 8226; [3]) of 41.4 ± 1.25% and a melting point of 157.4 to 159.1 °C. It also gave an inhibition at 10 µM (HL-60; [4]) of 4.32 ± 1.35%, an inhibition at 50 µM (HL-60; [5]) of 46.9 ± 1.33% and an inhibition at 10 µM (Hela; Homo sapiens, HeLa, 10 μM) of -10.9 ± 2.58%. The inhibition at 50 µM (Hela; Homo sapiens, HeLa, 50 μM) was 2.44 ± 0.72%.
Work on `COC(=O)[C@H]1CCCN1S(=O)(=O)c1ccc(-c2ccc(NC(=O)[C@H](C)N)cc2)cc1` [7c, Methyl (2R)-1-(4-{4-[(2S)-2-Aminopropionamido]phenyl}benzenesulfonyl)pyrrolidine-2-carboxylate] yielded an inhibition at 10 µM (RPMI 8226; [2]) of 1.42 ± 0.97%, an inhibition at 50 µM (RPMI 8226; [3]) of 49.7 ± 1.35% and a melting point of 155.1 to 158.3 °C. The inhibition at 10 µM (HL-60; [4]) was 2.78 ± 0.7%, the inhibition at 50 µM (HL-60; [5]) was 49.6 ± 0.82% and the inhibition at 10 µM (Hela; Homo sapiens, HeLa, 10 μM) was -13.5 ± 1.33%. For the same molecule, the inhibition at 50 µM (Hela; Homo sapiens, HeLa, 50 μM) was 8.63 ± 2.03%.
With `COC(=O)[C@H]1CCCN1S(=O)(=O)c1ccc(-c2ccc(NC(=O)CN)nc2)cc1` [7d] the inhibition at 10 µM (RPMI 8226; [2]) was 1.7 ± 0.72%, the inhibition at 50 µM (RPMI 8226; [3]) was 89.7 ± 1.48% and the melting point was 170.2 to 173.5 °C. For the same molecule, the inhibition at 10 µM (HL-60; [4]) was 5.53 ± 1.21%, the inhibition at 50 µM (HL-60; [5]) was 16.9 ± 1.74% and the inhibition at 10 µM (Hela; Homo sapiens, HeLa, 10 μM) was -5.24 ± 0.18%. For the same molecule, the inhibition at 50 µM (Hela; Homo sapiens, HeLa, 50 μM) was 41.8 ± 2.62%.
For `COC(=O)[C@H]1CCCN1S(=O)(=O)c1ccc(-c2ccc(NC(=O)[C@@H](C)N)nc2)cc1` [7e, Methyl (2R)-1-(4-{6-[(2R)-2-Aminopropionamido]pyridin-3-yl}benzenesulfonyl)pyrrolidine-2-carboxylate], the inhibition at 10 µM (RPMI 8226; [2]) was -2.63 ± 2.86%, the inhibition at 50 µM (RPMI 8226; [3]) was 24.4 ± 0.79% and the melting point was 146 to 148.4 °C. It also gave an inhibition at 10 µM (HL-60; [4]) of -0.89 ± 2.31%, an inhibition at 50 µM (HL-60; [5]) of 17.8 ± 0.86% and an inhibition at 10 µM (Hela; Homo sapiens, HeLa, 10 μM) of -11.9 ± 1.69%. For the same molecule, the inhibition at 50 µM (Hela; Homo sapiens, HeLa, 50 μM) was 7.27 ± 0.41%.
`COC(=O)[C@H]1CCCN1S(=O)(=O)c1ccc(-c2ccc(NC(=O)[C@H](C)N)nc2)cc1` [7f, (2R)-1-(4-{6-[(2S)-2-Aminopropionamido]pyridin-3-yl}benzenesulfonyl)pyrrolidine-2-carboxylate Methyl Ester] showed an inhibition at 10 µM (RPMI 8226; [2]) of -4.38 ± 0.19%, an inhibition at 50 µM (RPMI 8226; [3]) of 29.4 ± 5.22% and a melting point of 146.2 to 148.9 °C. For the same molecule, the inhibition at 10 µM (HL-60; [4]) was 11.1 ± 0.74%, the inhibition at 50 µM (HL-60; [5]) was 28.2 ± 0.98% and the inhibition at 10 µM (Hela; Homo sapiens, HeLa, 10 μM) was -2.62 ± 1.36%. It also gave an inhibition at 50 µM (Hela; Homo sapiens, HeLa, 50 μM) of 21.6 ± 6.65%.
Work on `COC(=O)C1CCCN1S(=O)(=O)c1ccc(-c2ccc(NC(=O)CN)cc2)cc1` [13a, (2S)-Methyl 1-{4-[4-[4-(2-Aminoacetamido)phenyl]benzenesulfonyl}pyrrolidine-2-carboxylate] yielded an IC50 (RPMI 8226; 72 h) of 5.85 µM, an inhibition at 10 µM (RPMI 8226; [2]) of 63.1 ± 1.99% and an inhibition at 50 µM (RPMI 8226; [3]) of 99.89 ± 0.06%. The CC50 (HL-7702) was 27.5 µM, the IC50 (HL-60; 72 h) was 7.23 µM and the inhibition at 10 µM (HL-60; [4]) was 59 ± 2.12%. For the same molecule, the inhibition at 50 µM (HL-60; [5]) was 99.25 ± 0.08%, the IC50 (Hela) was 5.19 µM and the inhibition at 10 µM (Hela; Homo sapiens, HeLa, 10 μM) was 98.74 ± 0.04%. It also gave an inhibition at 50 µM (Hela; Homo sapiens, HeLa, 50 μM) of 99.68 ± 0.17%.
`COC(=O)[C@@H]1CCCN1S(=O)(=O)c1ccc(-c2ccc(NC(=O)[C@@H](C)N)cc2)cc1` [13b, (2S)-1-(4-{4-[(2R)-2-Aminopropionamido]phenyl}benzenesulfonyl)pyrrolidine-2-carboxylate Methyl Ester] gave an inhibition at 10 µM (RPMI 8226; [2]) of 0.89 ± 3.52%, an inhibition at 50 µM (RPMI 8226; [3]) of 97.45 ± 0.36% and an IC50 (RPMI 8226; Homo sapiens, RPMI-8226, 72 h) of 25.2 µM. The melting point was 156.4 to 159.1 °C, the CC50 at 72 h [1] was 89.1 µM and the IC50 (HL-60; Homo sapiens, HL-60, 72 h) was 10.3 µM. The inhibition at 10 µM (HL-60; [4]) was 43.49 ± 0.21%, the inhibition at 50 µM (HL-60; [5]) was 100.03 ± 0.04% and the IC50 (Hela; Homo sapiens, HeLa) was 20.6 µM. The inhibition at 10 µM (Hela; Homo sapiens, HeLa, 10 μM) was -4.83 ± 3.13% and the inhibition at 50 µM (Hela; Homo sapiens, HeLa, 50 μM) was 62.27 ± 0.57%.
With `COC(=O)[C@@H]1CCCN1S(=O)(=O)c1ccc(-c2ccc(NC(=O)[C@H](C)N)cc2)cc1` [13c, Methyl (2S)-1-(4-{4-[(2S)-2-Aminopropionamido]phenyl}benzenesulfonyl)pyrrolidine-2-carboxylate] the inhibition at 10 µM (RPMI 8226; [2]) was 29.6 ± 0.48%, the inhibition at 50 µM (RPMI 8226; [3]) was 82.9 ± 2.04% and the IC50 (RPMI 8226; Homo sapiens, RPMI-8226, 72 h) was 10.7 µM. The melting point was 155.3 to 157.6 °C, the CC50 at 72 h [1] was 43.7 µM and the IC50 (HL-60; Homo sapiens, HL-60, 72 h) was 30.9 µM. It also gave an inhibition at 10 µM (HL-60; [4]) of 20 ± 2.83%, an inhibition at 50 µM (HL-60; [5]) of 96.55 ± 0.22% and an IC50 (Hela; Homo sapiens, HeLa) of 20.6 µM. The inhibition at 10 µM (Hela; Homo sapiens, HeLa, 10 μM) was -3.69 ± 0.34% and the inhibition at 50 µM (Hela; Homo sapiens, HeLa, 50 μM) was 72.3 ± 1.57%.
`COC(=O)[C@@H]1CCCN1S(=O)(=O)c1ccc(-c2ccc(NC(=O)CN)nc2)cc1` [13d] gave an inhibition at 10 µM (RPMI 8226; [2]) of 0.01 ± 0.52%, an inhibition at 50 µM (RPMI 8226; [3]) of 92.27 ± 0.08% and an IC50 (RPMI 8226; Homo sapiens, RPMI-8226, 72 h) of 32.2 µM. The melting point was 170.3 to 172.9 °C, the IC50 (HL-60; Homo sapiens, HL-60, 72 h) was 10.5 µM and the inhibition at 10 µM (HL-60; [4]) was 32 ± 3.2%. The inhibition at 50 µM (HL-60; [5]) was 99.93 ± 0.05%, the IC50 (Hela; Homo sapiens, HeLa) was 17.4 µM and the inhibition at 10 µM (Hela; Homo sapiens, HeLa, 10 μM) was -18.4 ± 2.15%. For the same molecule, the inhibition at 50 µM (Hela; Homo sapiens, HeLa, 50 μM) was 33.4 ± 1.97%.
`COC(=O)[C@@H]1CCCN1S(=O)(=O)c1ccc(-c2ccc(NC(=O)[C@@H](C)N)nc2)cc1` [13e, Methyl (2S)-1-(4-{6-[(2R)-2-Aminopropionamido]pyridin-3-yl}benzenesulfonyl)pyrrolidine-2-carboxylate] showed an inhibition at 10 µM (RPMI 8226; [2]) of 5.5 ± 1.12%, an inhibition at 50 µM (RPMI 8226; [3]) of 94.89 ± 0.02% and a melting point of 146.2 to 148.9 °C. For the same molecule, the inhibition at 10 µM (HL-60; [4]) was 17.43 ± 0.16%, the inhibition at 50 µM (HL-60; [5]) was 99.98 ± 0.05% and the inhibition at 10 µM (Hela; Homo sapiens, HeLa, 10 μM) was -12.6 ± 1.59%. It also gave an inhibition at 50 µM (Hela; Homo sapiens, HeLa, 50 μM) of 81.6 ± 1.09%.
Molecule `COC(=O)[C@@H]1CCCN1S(=O)(=O)c1ccc(-c2ccc(NC(=O)[C@H](C)N)nc2)cc1` [13f, (2S)-1-(4-{6-[(2S)-2-Aminopropionamido]pyridin-3-yl}benzenesulfonyl)pyrrolidine-2-carboxylate Methyl Ester] has an inhibition at 10 µM (RPMI 8226; [2]) of 12.4 ± 0.52%, an inhibition at 50 µM (RPMI 8226; [3]) of 89.23 ± 0.24% and a melting point of 146.8 to 149.1 °C. It also gave an inhibition at 10 µM (HL-60; [4]) of 13.9 ± 0.73%, an inhibition at 50 µM (HL-60; [5]) of 99.81 ± 0.12% and an inhibition at 10 µM (Hela; Homo sapiens, HeLa, 10 μM) of -6.37 ± 0.44%. For the same molecule, the inhibition at 50 µM (Hela; Homo sapiens, HeLa, 50 μM) was 91.57 ± 0.51%.
With `O=C(CCCCCCC(=O)Nc1ccccc1)NO` [SAHA, vorinostat, reference compound] the CC50 at 72 h [1] was 2.03 µM.
